Here are results for one compound from ChEMBL document CHEMBL4020706, “Design, synthesis and biological evaluation of novel hydroxamates and 2-aminobenzamides as potent histone deacetylase inhibitors and antitumor agents” (Eur J Med Chem, 2017).

Structures are written as SMILES.

Test [1] relates to A549. The test can be described thus: Cell cycle arrest in human A549 cells assessed as accumulation at G2/M phase after 48 hrs by propidium iodide staining-based flow cytometry. Format: functional. Background: A flow cytometer gives signals particle by particle.
The test system of test [2] is A549. The test can be described thus: Induction of apoptosis in human A549 cells assessed as viable cells at 8 umol/L after 48 hrs by Alexa Fluor 488 Annexin/propidium iodide staining-based flow cytometry (reference value: 92.79%). Particulars: A549, 48 h, read-out: Activity. In kind it is functional.
The subject of test [3] is A549. The test can be described thus: Induction of apoptosis in human A549 cells after 48 hrs by Alexa Fluor 488 Annexin/propidium iodide staining-based flow cytometry. Format: functional, cell-based.
The test system of test [4] is A549. Nature of the test: Cell cycle arrest in human A549 cells assessed as accumulation at G0/G1 phase at 16 umol/L after 48 hrs by propidium iodide staining-based flow cytometry (reference value: 75.77%). In kind it is functional.
Test [5] relates to HepG2. The test can be described thus: Antiproliferative activity against human HepG2 cells after 72 hrs by CCK-8 reagent based assay. Format: functional, cell-based. Particulars: HepG2, 72 h. In general terms: Tetrazolium assays rely on reduction of a dye to a coloured formazan, in cell work by metabolically active cells.
For test [6], the system named is A549. Nature of the test: Induction of apoptosis in human A549 cells assessed as late apoptotic cells at 8 umol/L after 48 hrs by Alexa Fluor 488 Annexin/propidium iodide staining-based flow cytometry (reference value: 2.93%). In kind it is functional.
Test [7] deals with A549. Nature of the test: Cell cycle arrest in human A549 cells assessed as accumulation at S phase at 16 umol/L after 48 hrs by propidium iodide staining-based flow cytometry (reference value: 15.13%). Format: functional.
Test [8] relates to A549. Nature of the test: Cell cycle arrest in human A549 cells assessed as accumulation at S phase at 2 umol/L after 48 hrs by propidium iodide staining-based flow cytometry (reference value: 15.13%). In kind it is functional.
In test [9] the test system is A549. Nature of the test: Induction of apoptosis in human A549 cells assessed as necrotic cells at 8 umol/L after 48 hrs by Alexa Fluor 488 Annexin/propidium iodide staining-based flow cytometry (reference value: 0.87%). In kind it is functional.
For test [10], the system named is A549. The test can be described thus: Induction of apoptosis in human A549 cells assessed as viable cells at 4 umol/L after 48 hrs by Alexa Fluor 488 Annexin/propidium iodide staining-based flow cytometry (reference value: 92.79%). Format: functional. The following applies: A549, 48 h, read-out: Activity.
Test [11] deals with Histone deacetylase 1 (Homo sapiens, UniProt Q13547). Nature of the test: Inhibition of human recombinant HDAC1 using Fluor de Lys as substrate by fluorometric assay.
Test [12] deals with A549. Nature of the test: Cell cycle arrest in human A549 cells assessed as accumulation at G0/G1 phase at 2 umol/L after 48 hrs by propidium iodide staining-based flow cytometry (reference value: 75.77%). Format: functional.
The test system of test [13] is A549. Nature of the test: Induction of apoptosis in human A549 cells assessed as late apoptotic cells at 4 umol/L after 48 hrs by Alexa Fluor 488 Annexin/propidium iodide staining-based flow cytometry (reference value: 2.93%). Format: functional.
Test [14] concerns MGC-803. Nature of the test: Antiproliferative activity against human MGC803 cells after 72 hrs by CCK-8 reagent based assay. Format: functional, cell-based. The following applies: MGC-803, 72 h.
Test [15] relates to A549. Nature of the test: Inhibition of colony formation in human A549 cells after 7 days by crystal violet staining based assay. Format: functional, cell-based.
Test [16] addresses Histone deacetylase 2 (Homo sapiens, UniProt Q92769). The test can be described thus: Inhibition of human recombinant HDAC2 using Fluor de Lys green as substrate by fluorometric assay.
Test [17] concerns A549. Nature of the test: Induction of apoptosis in human A549 cells assessed as early apoptotic cells at 4 umol/L after 48 hrs by Alexa Fluor 488 Annexin/propidium iodide staining-based flow cytometry (reference value: 3.41%). In kind it is functional.
Test [18] has as its system A549. Nature of the test: Induction of apoptosis in human A549 cells assessed as early apoptotic cells at 8 umol/L after 48 hrs by Alexa Fluor 488 Annexin/propidium iodide staining-based flow cytometry (reference value: 3.41%). In kind it is functional.
Test [19] deals with HCT-116. The test can be described thus: Antiproliferative activity against human HCT116 cells after 72 hrs by CCK-8 reagent based assay. In kind it is functional, cell-based. The following applies: HCT-116, 72 h.
The target of test [20] is T1, Protein deacetylase HDAC6 (Homo sapiens, UniProt Q9UBN7).
T1 sequence (Q9UBN7 whole entry): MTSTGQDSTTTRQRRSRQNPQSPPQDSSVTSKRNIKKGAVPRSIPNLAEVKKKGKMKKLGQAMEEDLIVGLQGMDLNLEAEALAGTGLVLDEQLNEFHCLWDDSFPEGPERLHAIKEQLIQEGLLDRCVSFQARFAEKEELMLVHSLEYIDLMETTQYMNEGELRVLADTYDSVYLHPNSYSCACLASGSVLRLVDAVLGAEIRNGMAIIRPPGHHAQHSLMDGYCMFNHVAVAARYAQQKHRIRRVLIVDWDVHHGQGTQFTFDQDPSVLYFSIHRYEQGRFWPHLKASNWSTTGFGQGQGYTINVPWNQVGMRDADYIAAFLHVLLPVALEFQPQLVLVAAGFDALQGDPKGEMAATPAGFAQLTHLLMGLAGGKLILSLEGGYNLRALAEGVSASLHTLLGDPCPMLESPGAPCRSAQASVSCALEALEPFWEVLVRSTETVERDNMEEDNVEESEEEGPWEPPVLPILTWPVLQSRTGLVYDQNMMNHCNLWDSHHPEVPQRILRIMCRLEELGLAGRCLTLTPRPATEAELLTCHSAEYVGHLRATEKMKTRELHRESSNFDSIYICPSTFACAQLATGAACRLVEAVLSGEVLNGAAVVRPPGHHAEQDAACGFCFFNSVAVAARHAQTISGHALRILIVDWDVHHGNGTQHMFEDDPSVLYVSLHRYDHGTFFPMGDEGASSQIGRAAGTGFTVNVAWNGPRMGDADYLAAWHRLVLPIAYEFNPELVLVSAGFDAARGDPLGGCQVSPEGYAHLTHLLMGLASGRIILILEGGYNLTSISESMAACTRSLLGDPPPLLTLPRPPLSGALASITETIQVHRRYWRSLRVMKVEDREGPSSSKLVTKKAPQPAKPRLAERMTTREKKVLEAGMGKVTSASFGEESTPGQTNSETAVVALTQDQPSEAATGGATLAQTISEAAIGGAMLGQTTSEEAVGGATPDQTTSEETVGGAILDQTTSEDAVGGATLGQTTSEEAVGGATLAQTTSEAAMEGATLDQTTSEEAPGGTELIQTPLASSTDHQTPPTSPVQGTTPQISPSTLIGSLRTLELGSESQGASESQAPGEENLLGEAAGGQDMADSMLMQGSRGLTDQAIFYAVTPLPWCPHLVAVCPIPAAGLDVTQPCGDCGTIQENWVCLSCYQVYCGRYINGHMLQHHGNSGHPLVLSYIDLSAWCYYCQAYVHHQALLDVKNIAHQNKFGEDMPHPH
Nature of the test: Inhibition of human recombinant HDAC6 using Fluor de Lys as substrate after 60 mins by fluorometric assay.

Test [21] relates to A549. Nature of the test: Induction of apoptosis in human A549 cells assessed as necrotic cells at 4 umol/L after 48 hrs by Alexa Fluor 488 Annexin/propidium iodide staining-based flow cytometry (reference value: 0.87%). Format: functional.
Test [22] deals with A549. The test can be described thus: Cell cycle arrest in human A549 cells assessed as accumulation at G2/M phase at 16 umol/L after 48 hrs by propidium iodide staining-based flow cytometry (reference value: 9.1%). In kind it is functional. Particulars: at 16 µM.
Test [23] relates to A549. Nature of the test: Cell cycle arrest in human A549 cells assessed as accumulation at G2/M phase at 2 umol/L after 48 hrs by propidium iodide staining-based flow cytometry (reference value: 9.1%). Format: functional. The following applies: at 2 µM.
For test [24], the system named is A549. Nature of the test: Antiproliferative activity against human A549 cells after 72 hrs by CCK-8 reagent based assay. In kind it is functional, cell-based. Particulars: A549, 72 h.

Histone deacetylase 2, sequence (Q92769 whole entry): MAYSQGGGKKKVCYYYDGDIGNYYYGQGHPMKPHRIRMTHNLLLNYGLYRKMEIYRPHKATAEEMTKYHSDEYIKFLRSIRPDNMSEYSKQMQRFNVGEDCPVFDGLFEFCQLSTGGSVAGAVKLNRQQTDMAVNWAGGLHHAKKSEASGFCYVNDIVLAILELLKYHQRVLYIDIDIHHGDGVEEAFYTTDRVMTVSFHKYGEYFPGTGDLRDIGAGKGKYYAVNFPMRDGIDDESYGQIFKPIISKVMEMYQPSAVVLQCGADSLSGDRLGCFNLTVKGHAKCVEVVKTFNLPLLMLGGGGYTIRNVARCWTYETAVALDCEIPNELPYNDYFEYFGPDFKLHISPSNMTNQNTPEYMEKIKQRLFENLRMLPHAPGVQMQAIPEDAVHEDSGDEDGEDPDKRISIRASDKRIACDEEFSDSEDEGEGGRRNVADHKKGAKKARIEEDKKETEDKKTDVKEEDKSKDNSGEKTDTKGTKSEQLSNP
Histone deacetylase 1, sequence (Q13547 whole entry): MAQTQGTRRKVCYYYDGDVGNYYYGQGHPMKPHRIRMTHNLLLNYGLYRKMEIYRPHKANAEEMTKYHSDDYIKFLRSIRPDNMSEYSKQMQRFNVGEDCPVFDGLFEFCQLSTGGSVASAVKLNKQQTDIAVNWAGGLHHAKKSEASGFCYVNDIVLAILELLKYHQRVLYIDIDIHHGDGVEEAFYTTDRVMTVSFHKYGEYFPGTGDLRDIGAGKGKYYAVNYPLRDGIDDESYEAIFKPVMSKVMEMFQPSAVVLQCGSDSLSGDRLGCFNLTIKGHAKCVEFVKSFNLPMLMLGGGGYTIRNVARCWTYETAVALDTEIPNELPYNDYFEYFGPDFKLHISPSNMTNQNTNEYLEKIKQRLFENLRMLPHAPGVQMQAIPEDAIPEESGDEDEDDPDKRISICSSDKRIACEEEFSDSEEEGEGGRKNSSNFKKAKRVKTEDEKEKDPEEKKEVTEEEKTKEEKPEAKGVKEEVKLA

The IC50 is the concentration at which inhibition is half-maximal. Take `Nc1ccccc1NC(=O)c1ccc(COc2ccc(F)cc2)cc1`: the Activity result in [1] is “Dose-dependent effect”; in test [3], “Dose-dependent effect”; in [4] it was 54.03%; in [6], 28.88%; in test [7], 8.23%; in test [8], 6.1%. In addition, the Activity in test [9] is 6.34%; in test [12] it was 84.93%; in test [13], 10.93%; in test [17], 14.37%; in test [18], 35.52%; in test [21], 3.74%. The Activity in [22] is 37.74%; in [23], 8.97%. The viability at 8 µM in [2] stood at 29.7%. The IC50 was 3.84 µM in test [5]; 1.27 µM in test [11]; 4.97 µM in [14]; 0.57 µM in test [16]; 3.86 µM in test [19]; over 40 µM in [20]. In test [24], this compound gave an IC50 of 5.37 µM. Also, the viability at 4 µM in test [10] amounted to 70.9%. Moreover, the inhibition entry in [15] is “Dose-dependent effect”.
